Measured values taken from the supplement of paper PMC11061612.

Columns and labels:
Assay in all cases: combination Emax (second highest fraction inhibited in the dose matrix, 72 h); higher = more inhibition; extreme values may be limits of the assay
[1] = test system: LS-180 (Colorectal Carcinoma)
How it was run: (§1)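 Bliss excess equals the observed combination effect minus the expected value EA + EB − EA·EB, where EA and EB are the effects of each agent alone. Combination Emax is the second-highest inhibition within the matrix. Inhibition was scaled from CellTiter-Glo 2.0 luminescence, with 0 set by vehicle wells and 1 by blank wells, after 72 hours of two-drug dosing of cells plated in 1536-well plates.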

[2] = test system: HCC-78 (Lung Adenocarcinoma)
How it was run: as §1

[3] = test system: TE-15 (Esophageal Squamous Cell Carcinoma)
How it was run: as §1

[4] = test system: MFE-296 (Endometrial Carcinoma)
How it was run: as §1

[5] = test system: MDA-MB-361 (Breast Carcinoma)
How it was run: as §1

[6] = test system: NB10 (Neuroblastoma)
How it was run: as §1

[7] = test system: EC-GI-10 (Esophageal Squamous Cell Carcinoma)
How it was run: as §1

[8] = test system: Hs-578-T (Breast Carcinoma)
How it was run: as §1

[9] = test system: Calu-3 (Lung Adenocarcinoma)
How it was run: as §1

[10] = test system: DoTc2-4510 (Cervical Carcinoma)
How it was run: as §1

[11] = test system: CCRF-CEM (T-Lymphoblastic Leukemia)
How it was run: as §1

[12] = test system: KP-1N (Pancreatic Carcinoma)
How it was run: as §1

**Q.** Which “combination Emax” value [1] does the source give for `COc1cc2c(cc1OCCCCCOc1cc3c(cc1OC)C(=O)N1C=C(C)C[C@H]1C=N3)N=C[C@@H]1CC(C)=CN1C2=O` [SG3199] + O=C(c1cc(Cc2n[nH]c(=O)c3ccccc23)ccc1F)N1CCN(C(=O)C2CC2)CC1 [Olaparib] (first compound max 0.001 µM, 7x7, partner max 10 µM) here?
**A.** 0.181

**Q.** And the “combination Emax” value [2]?
**A.** 0.101

**Q.** What about the “combination Emax” value [3] of the same compound?
**A.** 0.166

**Q.** And the “combination Emax” value [4]?
**A.** 0.0449

**Q.** And the “combination Emax” value [5]?
**A.** 0.0847

**Q.** What about the “combination Emax” value [6] of the same compound?
**A.** 0.348

**Q.** And the “combination Emax” value [7]?
**A.** 0.198

**Q.** And the “combination Emax” value [8]?
**A.** 0.256

**Q.** And the “combination Emax” value [9]?
**A.** 0.0759

**Q.** And the “combination Emax” value [10]?
**A.** 0.321

**Q.** What about the “combination Emax” value [11] of the same compound?
**A.** 0.257

**Q.** And the “combination Emax” value [12]?
**A.** 0.18

**Q.** Which “combination Emax” value [1] does the source give for `C[C@@H]1COCCN1c1cc(C2([S@](C)(=N)=O)CC2)nc(-c2ccnc3[nH]ccc23)n1` [AZD6738] + O=C(c1cc(Cc2n[nH]c(=O)c3ccccc23)ccc1F)N1CCN(C(=O)C2CC2)CC1 [Olaparib] (first compound max 10 µM, 7x7, partner max 10 µM) here?
**A.** 0.733

**Q.** And the “combination Emax” value [2]?
**A.** 0.638

**Q.** What about the “combination Emax” value [3] of the same compound?
**A.** 0.738

**Q.** What about the “combination Emax” value [4] of the same compound?
**A.** 0.391

**Q.** And the “combination Emax” value [5]?
**A.** 0.836

**Q.** And the “combination Emax” value [6]?
**A.** 0.811

**Q.** What about the “combination Emax” value [7] of the same compound?
**A.** 0.747

**Q.** What about the “combination Emax” value [8] of the same compound?
**A.** 0.898

**Q.** And the “combination Emax” value [9]?
**A.** 0.193

**Q.** And the “combination Emax” value [10]?
**A.** 0.7

**Q.** And the “combination Emax” value [11]?
**A.** 1

**Q.** What about the “combination Emax” value [12] of the same compound?
**A.** 0.425

**Q.** Which results are given for `CN(CCO)CC[C@H](CSc1ccccc1)Nc1ccc(S(=O)(=O)NC(=O)c2ccc(N3CCC([C@@H](O)c4ccccc4-c4ccc(Cl)cc4)CC3)cc2)cc1S(=O)(=O)C(F)(F)F` [AZD4320] + C[C@@H](Nc1cc(F)cc(F)c1)c1cc(C(=O)N(C)C)cc2c(=O)cc(N3CCOCC3)oc12 [AZD8186] (first compound max 1 µM, 7x7, partner max 3 µM)?
**A.** combination Emax [1]: 0.504; combination Emax [2]: 0.528; combination Emax [3]: 0.551; combination Emax [4]: 0.306; combination Emax [5]: 0.672; combination Emax [6]: 0.78; combination Emax [7]: 0.333; combination Emax [8]: 0.874; combination Emax [9]: 0.242; combination Emax [10]: 0.911; combination Emax [11]: 1; combination Emax [12]: 0.303

**Q.** For `CN(CCO)CC[C@H](CSc1ccccc1)Nc1ccc(S(=O)(=O)NC(=O)c2ccc(N3CCC([C@@H](O)c4ccccc4-c4ccc(Cl)cc4)CC3)cc2)cc1S(=O)(=O)C(F)(F)F` [AZD4320] + C=CCn1c(=O)c2cnc(Nc3ccc(N4CCN(C)CC4)cc3)nc2n1-c1cccc(C(C)(C)O)n1 [AZD1775] (first compound max 1 µM, partner max 1 µM), which “combination Emax” value [1] is on record?
**A.** 0.422

**Q.** And the “combination Emax” value [2]?
**A.** 0.232

**Q.** What about the “combination Emax” value [3] of the same compound?
**A.** 0.615

**Q.** What about the “combination Emax” value [4] of the same compound?
**A.** 0.273

**Q.** And the “combination Emax” value [5]?
**A.** 0.918

**Q.** What about the “combination Emax” value [6] of the same compound?
**A.** 0.493

**Q.** And the “combination Emax” value [7]?
**A.** 0.903

**Q.** What about the “combination Emax” value [8] of the same compound?
**A.** 0.928

**Q.** And the “combination Emax” value [9]?
**A.** 0.182

**Q.** And the “combination Emax” value [10]?
**A.** 0.884

**Q.** What about the “combination Emax” value [11] of the same compound?
**A.** 1

**Q.** What about the “combination Emax” value [12] of the same compound?
**A.** 0.398

**Q.** What does the source list for `COc1nnc2ccc(N3CCC(c4ccc(OCCN5CCN(C)C(=O)[C@H]5C)cc4)CC3)nn12` [AZD5153] + Cn1cnc2c(F)c(Nc3ccc(Br)cc3Cl)c(C(=O)NOCCO)cc21 [Selumetinib] (first compound max 1 µM, 7x7, partner max 10 µM)?
**A.** combination Emax [1]: 0.828; combination Emax [2]: 0.451; combination Emax [3]: 0.743; combination Emax [4]: 0.356; combination Emax [5]: 0.642; combination Emax [6]: 0.785; combination Emax [7]: 0.526; combination Emax [8]: 0.736; combination Emax [9]: 0.887; combination Emax [10]: 0.427; combination Emax [11]: 0.638; combination Emax [12]: 0.563

**Q.** What does the source list for `CC1(C)CCC(CN2CCN(c3ccc(C(=O)NS(=O)(=O)c4ccc(NCC5CCOCC5)c([N+](=O)[O-])c4)c(Oc4cnc5[nH]ccc5c4)c3)CC2)=C(c2ccc(Cl)cc2)C1` [Venetoclax] + Cc1cc2ncnn2cc1Nc1ncc2c(n1)n(C1CCOCC1)c(=O)n2C [AZD7648] (first compound max 1 µM, 7x7, partner max 10 µM)?
**A.** combination Emax [1]: 0.275; combination Emax [2]: 0.243; combination Emax [3]: 0.295; combination Emax [4]: 0.147; combination Emax [5]: 0.44; combination Emax [6]: 0.246; combination Emax [7]: 0.436; combination Emax [8]: 0.831; combination Emax [9]: 0.155; combination Emax [10]: 0.23; combination Emax [11]: 0.931; combination Emax [12]: 0.108

**Q.** Which results are given for `CC(=O)Nc1cccc(-n2c(=O)n(C3CC3)c(=O)c3c(Nc4ccc(I)cc4F)n(C)c(=O)c(C)c32)c1` [Trametinib] + Cc1nc(-c2cn3c(n2)-c2ccc(-c4cnn(C(C)(C)C(N)=O)c4)cc2OCC3)n(C(C)C)n1 [Taselisib] (first compound max 1 µM, 7x7, partner max 10 µM)?
**A.** combination Emax [1]: 0.903; combination Emax [2]: 0.712; combination Emax [3]: 0.664; combination Emax [4]: 0.43; combination Emax [5]: 0.976; combination Emax [6]: 0.921; combination Emax [7]: 1; combination Emax [8]: 0.919; combination Emax [9]: 0.972; combination Emax [10]: 0.841; combination Emax [11]: 0.517; combination Emax [12]: 0.644

**Q.** Which “combination Emax” value [1] does the source give for `Cn1cnc2c(F)c(Nc3ccc(Br)cc3Cl)c(C(=O)NOCCO)cc21` [Selumetinib] + CCN(CCO)CCCOc1ccc2c(Nc3cc(CC(=O)Nc4cccc(F)c4)[nH]n3)ncnc2c1 [AZD2811] (first compound max 10 µM, 7x7, partner max 1 µM) here?
**A.** 0.623

**Q.** What about the “combination Emax” value [2] of the same compound?
**A.** 0.267

**Q.** And the “combination Emax” value [3]?
**A.** 0.492

**Q.** What about the “combination Emax” value [4] of the same compound?
**A.** 0.125

**Q.** What about the “combination Emax” value [5] of the same compound?
**A.** 0.193

**Q.** And the “combination Emax” value [6]?
**A.** 0.397

**Q.** And the “combination Emax” value [7]?
**A.** 0.546

**Q.** And the “combination Emax” value [8]?
**A.** 0.491

**Q.** And the “combination Emax” value [9]?
**A.** 0.134

**Q.** And the “combination Emax” value [10]?
**A.** 0.224

**Q.** And the “combination Emax” value [11]?
**A.** 0.968

**Q.** What about the “combination Emax” value [12] of the same compound?
**A.** 0.135
